Test results from ChEMBL document CHEMBL1158050, “Minor sesquiterpenes with new carbon skeletons from the brown alga Dictyopteris divaricata” (J Nat Prod, 2006).

Key:
Assay type in all cases: functional, cell-based
A549 = test: Cytotoxicity against human A549 cells by MTT assay
MCF7 = test: Cytotoxicity against human MCF7 cells by MTT assay
BGC-823 = test: Cytotoxicity against human BGC-823 cells by MTT assay
Bel-7402 = test: Cytotoxicity against human Bel-7402 cells by MTT assay
HCT-8 = test: Cytotoxicity against human HCT8 cells by MTT assay

Measured: IC50

CC(=O)[C@@H]1C[C@]2(O)[C@@H]([C@H]1O)[C@H](C(C)C)CC[C@H]2C
> 10 µg/mL: all assays above

CC(=O)C1=C2[C@H](C(C)C)CC[C@@H](C)[C@@]2(O)CC1=O
> 10 µg/mL: all assays above

CC(=O)C1=C2[C@@H](C)CC[C@H](C(C)C)[C@@]2(O)CC1=O
> 10 µg/mL: all assays above

CC(=O)[C@H]1C[C@]2(O)[C@@H]([C@@H]1O)[C@H](C(C)C)CC[C@H]2C
> 10 µg/mL: all assays above

CC(=O)C1=C[C@@H]2[C@H](C(C)C)CC[C@@H](C)[C@]2(O)C1
> 10 µg/mL: all assays above

CC(C)[C@@H]1CC[C@@H](C)[C@@]2(O)C1=CC(=O)[C@@H]2C(C)O (stereo not given in full)
> 10 µg/mL: all assays above
